Measurements reported in US8404713B2, “Quinolinone derivatives as PARP inhibitors” (Janssen Pharmaceutica NV, priority 2007, dated 2013).

Tests used:
Human PARP-1 enzyme = molecular target: T1, Human PARP-1 enzyme (Homo sapiens, UniProt P09874); test: In vitro scintillation proximity assay (SPA) for PARP-1 inhibitory activity; type: biochemical; details: nicked DNA activated PARP-1, [3H]-NAD+, biotinylated histones; tested between 10^-5 M and 3x10^-9 M; read-out: in vitro SPA assay PARP-1 pIC50 (converted)
T1 construct: purchased Trevigen
Procedure: C.1. In Vitro Scintillation Proximity Assay (SPA) for PARP-1 Inhibitory Activity
Compounds of the present invention were tested in an in vitro assay based on SPA technology (proprietary to GE healthcare).
In principle, the assay relies upon the well established SPA technology for the detection of poly(ADP-ribosyl)ation of biotinylated target proteins, i.e histones. This ribosylation is induced using nicked DNA activated PARP-1 enzyme and [^3H]-nicotinamide adenine dinucleotide ([^3H]-NAD^+) as ADP-ribosyl donor.
Histones (type II-A, supplier: Sigma) were biotinylated using the biotinylation kit of Amersham and stored aliquoted at −20° C. A stock solution of 100 mg/ml SPA poly(vinyl toluene) (PVT) beads (supplier: Amersham) was made in PBS. A stock solution of 61.6 nM [^3H]-NAD^+ was made by adding [^3H]-NAD^+ (0.1 mCi/ml, supplier: Perkin Elmer) to incubation buffer (50 mM Tris/HCl, pH 8; 0.2 mM DTT; 4 mM MgCl2). A solution of 4 mM NAD^+ (supplier: Sigma) was made. Human PARP-1 enzyme was obtained from Trevigen. Biotinylated histones and PVT-SPA beads were mixed and pre-incubated for 30 min. at room temperature. PARP-1 enzyme (concentration was lot dependent) was mixed with the nicked DNA and the mixture was pre-incubated for 30 min. at 4° C. Equal parts of this histones/PVT-SPA beads solution and PARP-1 enzyme/DNA solution were mixed and 75 μl of this mixture together with 1 μl of compound in DMSO and 25 μl of [^3H]-NAD^+ was added per well into a 96-well microtiterplate. The final concentrations in the incubation mixture were 2 μg/ml for the biotinylated histones, 2 mg/ml for the PVT-SPA beads, 0.25 μg/ml for the nicked DNA and between 0.1-0.2 μg/ml for the PARP-1 enzyme. After incubation of the mixture for 20 min. at room temperature, the reaction was terminated by adding 100 μl of 4 mM NAD^+ in water (final concentration 2 mM) and plates were mixed. The beads were sedimented by centrifugation (10 min, 800 rpm). and plates transferred to a TopCountNXT™ (Packard) for scintillation counting, values were expressed as counts per minute (cpm). For each experiment, controls (containing PARP-1 enzyme and DMSO without compound), a blank incubation (containing DMSO but no PARP-1 enzyme, no DNA or compound) and samples (containing PARP-1 enzyme, DNA and compound dissolved in DMSO) were run in parallel. All compounds tested were dissolved and eventually further diluted in DMSO. A dose-response curve was made wherein the compounds were tested at concentrations between 10^−5M and 3×10^−9M. In each test, the blank value was subtracted from both the control and the sample values. The control sample represented maximal PARP-1 enzyme activity. For each sample, the amount of cpm was expressed as a percentage of the mean cpm value of the controls. When appropriate, IC50-values (concentration of the drug, needed to reduce the PARP-1 enzyme activity to 50% of the control) were computed using linear interpolation between the experimental points just above and below the 50% level. Herein the effects of test compounds are expressed as pIC50 (the negative log value of the IC50-value). As a reference compound, 4-amino-1,8-naphthalimide was included to validate the SPA assay.

TANK-2 enzyme = molecular target: T2, TANK-2 enzyme (Homo sapiens, UniProt Q9H2K2); test: In vitro scintillation proximity assay (SPA) for TANK-2 inhibitory activity; type: biochemical; details: auto-poly(ADP-ribosyl)ation, Ni flash plates; 96-well results if available, otherwise 384-well; tested between 10^-5 M and 3x10^-8 M; read-out: in vitro SPA assay TANK-2 pIC50 (converted)
T2 construct: made in house
T2 sequence (Q9H2K2 1-1166): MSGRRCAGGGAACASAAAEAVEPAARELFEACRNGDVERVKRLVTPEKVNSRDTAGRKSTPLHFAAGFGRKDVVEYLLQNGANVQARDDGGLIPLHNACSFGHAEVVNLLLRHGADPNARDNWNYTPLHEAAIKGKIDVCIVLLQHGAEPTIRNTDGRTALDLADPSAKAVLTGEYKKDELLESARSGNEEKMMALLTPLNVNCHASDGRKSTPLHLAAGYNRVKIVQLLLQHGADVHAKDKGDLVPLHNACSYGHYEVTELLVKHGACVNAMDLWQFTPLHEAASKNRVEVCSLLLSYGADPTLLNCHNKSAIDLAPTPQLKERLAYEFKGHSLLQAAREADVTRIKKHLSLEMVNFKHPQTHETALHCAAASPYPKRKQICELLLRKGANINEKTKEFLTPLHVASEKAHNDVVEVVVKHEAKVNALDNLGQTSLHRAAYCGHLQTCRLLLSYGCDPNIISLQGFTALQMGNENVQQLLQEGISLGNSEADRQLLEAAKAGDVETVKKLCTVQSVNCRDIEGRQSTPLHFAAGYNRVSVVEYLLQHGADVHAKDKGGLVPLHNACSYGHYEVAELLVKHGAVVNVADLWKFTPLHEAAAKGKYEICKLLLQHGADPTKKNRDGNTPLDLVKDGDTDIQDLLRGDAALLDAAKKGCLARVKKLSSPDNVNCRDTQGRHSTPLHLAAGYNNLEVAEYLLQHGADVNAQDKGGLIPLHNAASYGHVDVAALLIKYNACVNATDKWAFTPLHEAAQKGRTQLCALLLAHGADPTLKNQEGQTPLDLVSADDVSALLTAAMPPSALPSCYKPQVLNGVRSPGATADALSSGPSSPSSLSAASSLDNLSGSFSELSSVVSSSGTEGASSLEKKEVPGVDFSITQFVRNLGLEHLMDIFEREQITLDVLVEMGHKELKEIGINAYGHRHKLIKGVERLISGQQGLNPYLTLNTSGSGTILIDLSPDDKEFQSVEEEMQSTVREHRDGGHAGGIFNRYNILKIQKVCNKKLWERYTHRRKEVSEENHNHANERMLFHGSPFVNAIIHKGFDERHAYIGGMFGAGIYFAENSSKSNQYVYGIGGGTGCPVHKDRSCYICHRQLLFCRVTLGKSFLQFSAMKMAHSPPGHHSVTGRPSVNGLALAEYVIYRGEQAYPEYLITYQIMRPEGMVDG
Procedure: C.2. In Vitro Scintillation Proximity Assay (SPA) for TANK-2 Inhibitory Activity
Compounds of the present invention were tested in an in vitro assay based on SPA technology with Ni Flash plates (96 or 384 well).
In principle, the assay relies upon SPA technology for the detection of auto-poly(ADP-ribosyl)ation of TANK-2 protein using [^3H]-nicotinamide adenine dinucleotide ([^3H]-NAD^+) as ADP-ribosyl donor.
A stock solution of 100 nM [^3H]-NAD^+/NAD (0.1 mCi/ml, supplier: Perkin Elmer) and 0.25 mM NAD (Sigma) was made in assay buffer (60 mM Tris/HCl, pH 7.4; 0.9 mM DTT; 6 mM MgCl2). The TANK-2 enzyme was produced as described in EP1238063. 60 μl of assay buffer, together with 1 μl of compound in DMSO, 20 μl of [^3H]-NAD^+/NAD and 20 μl of TANK-2 enzyme (final concentration 8 μg/ml) was added per well into a 96-well Ni-coated flash plate (Perkin Elmer). After incubation of the mixture for 120 min. at room temperature, the reaction was terminated by adding 60 μl of stopsolution (42.6 mg NAD in 6 ml H2O). The plates were covered with a plate sealer and placed in a TopCountNX™ (Packard) for scintillation counting. Values were expressed as counts per minute (cpm). For each experiment, controls (containing TANK-2 enzyme and DMSO without compound), a blank incubation (containing DMSO but no TANK-2 enzyme or compound) and samples (containing TANK-2 enzyme and compound dissolved in DMSO) were run in parallel. All compounds tested were dissolved and eventually further diluted in DMSO. […] In each test, the blank value was subtracted from both the control and the sample values. The control sample represented maximal TANK-2 enzyme activity. For each sample, the amount of cpm was expressed as a percentage of the mean cpm value of the controls. When appropriate, IC50-values (concentration of the drug, needed to reduce the TANK-2 enzyme activity to 50% of the control) were computed using linear interpolation between the experimental points just above and below the 50% level. Herein the effects of test compounds are expressed as pIC50 (the negative log value of the IC50-value). As reference compounds, 3-aminobenzamide and 4-amino-1,8-naphtalimide were included to validate the SPA assay. Herein the assay was described using 96-well plates. In the assay using 384-well plates the same final concentrations were used and volumes were adapted.

[1] = test system: ischemia and reperfusion of the heart or skeletal muscle; details: rabbits, cited from earlier work
[2] = test system: colitis induced by intraluminal trinitrobenzene sulfonic acid; details: rats, colitis by trinitrobenzene sulfonic acid in 50% ethanol; cited from earlier work

T1 sequence (P09874 whole entry): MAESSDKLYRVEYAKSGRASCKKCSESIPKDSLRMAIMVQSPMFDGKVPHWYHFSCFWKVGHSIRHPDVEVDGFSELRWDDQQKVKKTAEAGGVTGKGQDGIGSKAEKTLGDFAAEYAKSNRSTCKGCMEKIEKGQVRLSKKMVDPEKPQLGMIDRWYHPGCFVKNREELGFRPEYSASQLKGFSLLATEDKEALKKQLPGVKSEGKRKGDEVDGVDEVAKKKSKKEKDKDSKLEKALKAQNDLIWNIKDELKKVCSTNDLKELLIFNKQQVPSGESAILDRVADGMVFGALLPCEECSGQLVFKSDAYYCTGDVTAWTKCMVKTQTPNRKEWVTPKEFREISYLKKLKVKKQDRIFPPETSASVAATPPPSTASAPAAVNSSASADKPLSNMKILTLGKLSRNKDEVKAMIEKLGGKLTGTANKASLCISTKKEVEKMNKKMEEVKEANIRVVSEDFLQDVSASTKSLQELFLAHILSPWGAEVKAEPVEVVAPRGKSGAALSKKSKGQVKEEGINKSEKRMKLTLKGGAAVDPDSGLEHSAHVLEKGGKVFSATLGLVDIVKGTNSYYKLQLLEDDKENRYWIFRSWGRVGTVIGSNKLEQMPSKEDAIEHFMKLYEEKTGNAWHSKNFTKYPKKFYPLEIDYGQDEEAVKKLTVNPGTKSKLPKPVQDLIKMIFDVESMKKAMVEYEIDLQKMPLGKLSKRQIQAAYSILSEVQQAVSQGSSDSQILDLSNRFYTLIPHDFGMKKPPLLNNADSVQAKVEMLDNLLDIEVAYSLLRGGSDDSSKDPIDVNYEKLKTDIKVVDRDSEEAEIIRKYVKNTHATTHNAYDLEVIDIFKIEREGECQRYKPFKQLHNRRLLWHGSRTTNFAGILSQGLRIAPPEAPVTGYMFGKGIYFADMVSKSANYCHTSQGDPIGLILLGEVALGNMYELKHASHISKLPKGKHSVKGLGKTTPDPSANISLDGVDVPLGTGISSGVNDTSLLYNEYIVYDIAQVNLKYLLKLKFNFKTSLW

Row | Structure (SMILES) | IC50 (Human PARP-1 enzyme) | IC50 (TANK-2 enzyme) | melting point | reduction in infarct size ([1]; single injection 1 mg/kg) | reduction in infarct size in the heart ([1]; single injection 10 mg/kg, one minute before occlusion or one minute before reperfusion) | effect on inflammatory response, morphology and energetic status of the distal colon [2]
1 | COc1ccccc1N1CCN(Cc2ccc3cc(C)c(=O)[nH]c3c2)CC1 [Compound 23] | 0.251 nM | > 10000 nM | 198 °C | – | – | –
2 | Oc1cccc2c(O)nccc12 [1,5-dihydroxyisoquinoline] | – | – | – | 38-48% | – | –
3 | CCc1cc2ccc(C(C(C)C)N3CCN(c4ccc(C#N)cn4)CC3)cc2[nH]c1=O (stereo not drawn) [Compound 13] | 3.94 nM | 269 nM | 135 °C | – | – | –
4 | Cc1cc2ccc(C(C)N3CCN(c4ccccc4C#N)CC3)cc2[nH]c1=O (stereo not drawn) [Compound 20] | 1.08 nM | 940 nM | 190 °C | – | – | –
5 | CCc1cc2ccc(CNCCc3c[nH]c4ccccc34)cc2[nH]c1=O [Compound 1] | 13.4 nM | 1440 nM | 155 °C | – | – | –
6 | NC(=O)c1cccc(N)c1 [3-amino-benzamide] | – | – | – | – | 32-42% | reduced the inflammatory response and restored the morphology and the energetic status of the distal colon
7 | CCc1cc2ccc(C(C)NCCc3c[nH]c4ccccc34)cc2[nH]c1=O (stereo not drawn) [Compound 14] | 70.1 nM | 428 nM | 170 °C | – | – | –
8 | Cc1cc2ccc(C(C)N3CCCC3)cc2[nH]c1=O (stereo not drawn) [Compound 68] | 0.759 nM | 2140 nM | 133 °C | – | – | –
9 | Cc1cc2ccc(CN3CCC(c4ccccc4)CC3)cc2[nH]c1=O [Compound 7] | 1.52 nM | > 10000 nM | 225 °C | – | – | –
10 | CCc1cc2ccc(C(O)CN3CCOCC3)cc2[nH]c1=O (stereo not drawn) [Compound 4] | 201 nM | 225 nM | 163 °C | – | – | –
11 | CCc1cc2c(OC)cc(CN3CCN(c4ccccc4OC)CC3)cc2[nH]c1=O [Compound 64] | 3.02 nM | 4470 nM | 80 °C | – | – | –
12 | CCc1cc2ccc(C(=O)N3CCc4ccccc4C3)cc2[nH]c1=O [Compound 10] | 108 nM | 454 nM | 255 °C | – | – | –

More lines, main results first:

Row | IC50 (Human PARP-1 enzyme) | IC50 (TANK-2 enzyme) | melting point | Structure (SMILES) | reduction in infarct size ([1]; single injection 1 mg/kg) | reduction in infarct size in the heart ([1]; single injection 10 mg/kg, one minute before occlusion or one minute before reperfusion) | effect on inflammatory response, morphology and energetic status of the distal colon [2]
13 | 51.3 nM | 36.1 nM | 235 °C | CCOC(=O)c1cnc(N2CCN(Cc3ccc4cc(CC)c(=O)[nH]c4c3)CC2)nc1 [Compound 11] | – | – | –
14 | 7.4 nM | 36.2 nM | > 250 °C | CCc1cc2ccc(CN3CCN(c4ncc(C(N)=O)cn4)CC3)cc2[nH]c1=O [Compound 16] | – | – | –
15 | 1.24 nM | 5450 nM | 184 °C | CCc1cc2ccc(CN3CCC(c4ccccc4)CC3)cc2[nH]c1=O [Compound 3] | – | – | –
16 | 109 nM | 3100 nM | 172 °C | CCc1cc2ccc(C(CO)N3CCC(Cc4ccccc4)CC3)cc2[nH]c1=O (stereo not drawn) [Compound 9] | – | – | –
17 | 77.4 nM | 2150 nM | 168 °C | CCc1cc2ccc(CNC3CCN(c4ncccn4)CC3)cc2[nH]c1=O [Compound 15] | – | – | –
18 | 0.605 nM | 687 nM | 252 °C | CCc1cc2ccc(CN3CCN(c4ccccn4)CC3)cc2[nH]c1=O [Compound 2] | – | – | –
